Molecules are shown by their SMILES.

In the experiment the test system is Plasmodium falciparum. The experiment is described as follows: GSK_TCMDC: Inhibition of Plasmodium falciparum 3D7 in whole erythrocytes, using parasite LDH activity as an index of growth. It counts as functional, organism-based. The settings on record: Plasmodium falciparum, 3D7.
As for `O=[N+]([O-])c1cc(/C=N/Nc2nc3nonc3nc2Nc2ccc(F)cc2)c(Cl)cc1Cl`, the XC50 was determined as 759 nM.

`Cc1cc(F)ccc1[C@H]1CNCCN1C(=O)N(C)[C@@H](C)c1cc(C(F)(F)F)cc(C(F)(F)F)c1` had an XC50 of 232 nM.

`Cc1cccc2nc(-c3ccc(-c4cccc(CN5CCCC(O)C5)c4)s3)[nH]c12` (stereo unspecified): the XC50 was determined as 942 nM.

Regarding `N#Cc1ccc(-n2cc(C(=O)Nc3ccc4c(c3)CCN(C3CCC3)CC4)c(C(F)(F)F)n2)cc1`, the XC50 came out at 290 nM.

In turn, `Cc1cc(Nc2ncc3c(n2)N(C2CCC2)CC3)ccc1N1CCN(C)CC1` returned an XC50 of 1190 nM.

The compound `COc1cc(/C=C/C(=O)NCC(CCNc2cc(=O)c3ccccc3[nH]2)NCc2cc(Br)cc(Br)c2)cc(OC)c1` (stereo unspecified) yielded an XC50 of 915 nM.

In turn, `Cc1ccc(NC(=O)NC2CCN(c3ccnc4ccccc34)C2)cc1` (stereo unspecified) displayed an XC50 of 709 nM.

With `COc1ccc(-c2nc(NC(=O)CS(=O)(=O)c3ccc(F)cc3)sc2C)cc1`, the XC50 is 243 nM.

Compound `COc1cccc(CC(=O)N2CCC(n3c(C)nc4ccc(C)cc43)CC2)c1` came in with an XC50 of 114 nM.

On to `Cc1cc(=O)c(-c2ccc(OCCSc3ccc(C(F)(F)F)cn3)cc2)c(C)[nH]1`, for which the XC50 turned out to be 527 nM.

Take `Nc1ncc(-c2cn[nH]c2)cc1-c1nc2cc(Cl)cnc2[nH]1`: the XC50 is 915 nM.

Take `Cc1cc(=NN=Cc2ccccn2)c2cc(F)ccc2[nH]1`: the XC50 came out at 761 nM.

Consider `Cc1oc(-c2ccc(Cl)cc2)cc1C(=O)NCCC1CCN(CCCCCNC(=O)/C=C/c2ccc(Cl)c(Cl)c2)CC1`, for which the XC50 was 446 nM.

With `Cn1nccc1C(=O)NCCNCc1cccc(-c2csc(-c3nc4ccccc4[nH]3)c2)c1`, the XC50 turned out to be 840 nM.

`CC(C)CCn1c(Sc2ccc(C#N)c([N+](=O)[O-])c2)nnc1-c1ccc(Cl)cc1` displayed an XC50 of 875 nM.

Turning to `Nc1cccc(-c2ccc3ccnc(N)c3c2)c1`, the XC50 came out at 796 nM.

With `CCc1nc(N)nc(N)c1-c1ccc(C(C)C)cc1`, the XC50 stood at 834 nM.

The compound `CCCNc1nc(Nc2ccccc2C)nc2ccccc12` came in with an XC50 of 887 nM.

On to `CCOc1cc(Br)c(C(C)NC(=O)c2ccccc2)cc1OCC` (stereo unspecified), for which the XC50 worked out at 861 nM.

As to `FC(F)(F)c1ccc2[nH]ccc(=NN=Cc3ccccc3Cl)c2c1`, the XC50 is 799 nM.

Compound `COc1ccc(Cl)cc1NC(=O)Nc1ccc2c(c1)CCN(C1CCC1)CC2` yielded an XC50 of 814 nM.

In turn, `C=CCc1cc(Br)ccc1OCCCON1C(N)=NC(N)=NC1(C)C` showed an XC50 of 3.2 nM.

Compound `CCCC(=O)Nc1ccc(OCCN(Cc2ccccc2OC(F)(F)F)c2ccc(C(F)(F)F)c(C#N)c2)cc1` gave an XC50 of 788 nM.

Take `Cc1cccc(C(=O)NC(NC(=S)Nc2cc(Cl)ccc2Cl)C(Cl)(Cl)Cl)c1` (stereo unspecified): the XC50 was 1270 nM.

In turn, `COc1ccc2nc(N)nc(C)c2c1` returned an XC50 of 927 nM.

For the compound `Cc1cccn2c(=O)c3cc(C(=O)NC4CCCCC4)c(=N)n(CCCn4ccnc4)c3nc12`, the XC50 stood at 753 nM.

`CCOC(=O)c1c(CNc2ccncc2)n(C)c2cc(Br)c(OC(C)=O)cc12` displayed an XC50 of 370 nM.

`N#Cc1ccc(N[C@@H](CC2CCCCC2)C(=O)Nc2ccc(-c3ccccc3)cc2)c2ccccc12` showed an XC50 of 597 nM.

`O=C(NC1CCN(c2ncc(C(F)(F)F)cc2Cl)CC1)c1cccs1` gave an XC50 of 897 nM.

Turning to `Cc1c2ccc(N(C)c3ccnc(Nc4ccc5c(c4)nc(NC(C)C)n5C)n3)cc2nn1C`, the XC50 came to 159 nM.

Compound `O=C(c1cccs1)N(Cc1cccc(-c2ccc(CNC3CCCC3)cc2)c1)C1CCN(Cc2ccccc2)CC1` came in with an XC50 of 1130 nM.

In the case of `CC(=O)c1ccc(NC(=O)Nc2ccc(N(C)c3ccnc(NC4CC4)n3)cc2)cc1`, the XC50 came to 805 nM.

For `CCN1CCC(N2CCC(n3c(C)nc4cc(C(F)(F)F)ccc43)CC2)CC1`, the XC50 worked out at 1020 nM.

The compound `CC[C@H]1CN2CCc3cc(OC)c(OC)cc3[C@@H]2C[C@@H]1CC1=NCCc2c1[nH]c1ccc(OCc3ccccc3)cc21` had an XC50 of 772 nM.

Compound `O=C(CC1CCCC1)N(Cc1ccc(-c2ccc(CNC3Cc4ccccc4C3)cc2)cc1)CC1CCCCN1` (stereo unspecified) showed an XC50 of 1060 nM.

Compound `Cc1cc(N[C@@H](Cc2ccccc2)C(=O)NCCCOC(C)C)nc(NCCc2ccc(F)cc2)n1` gave an XC50 of 934 nM.

`COc1cc(NCC2(CNCc3cn(Cc4ccccc4)c4ccccc34)CCCCC2)nc2ccccc12` displayed an XC50 of 946 nM.

As to `COc1ccc(C=NN=c2c3ccccc3[nH]c3ccccc23)c2ccccc12`, the XC50 was 1130 nM.

With `CC(C)NCc1cccc(-c2ccc(-c3nc4ccccc4[nH]3)cc2)c1`, the XC50 amounted to 761 nM.

`CN(C)CC1c2[nH]c3ccccc3c2CCN1C(=O)Nc1ccc(Cl)c(Cl)c1` (stereo unspecified) yielded an XC50 of 1210 nM.

The compound `O=C1CCCN1CCCNCc1ccc(-c2cccc(-c3nc4cc(F)ccc4[nH]3)c2)cc1` returned an XC50 of 659 nM.

As for `COc1cccc(C2CCN(CCN3CCC(CNC(=O)c4ccc(-c5ccc(C(F)(F)F)cc5)cc4)CC3)CC2)c1`, the XC50 is 886 nM.

`Cc1cc(N[C@@H](C)C(=O)Nc2ccccc2)nc(NCCc2ccc(F)cc2)n1` yielded an XC50 of 1110 nM.

For the compound `Cc1cccc(CN2CCCN(Cc3ccc(C(=O)Nc4ccc(C(C)(C)C)cc4)cc3)CC2)c1`, the XC50 worked out at 727 nM.

`Cc1cc2ccc(/C=C/C(=O)NC3CCC(CCN4CCc5ccc(C#N)cc5CC4)CC3)cc2[nH]1` (stereo unspecified): the XC50 amounted to 941 nM.

Regarding `CC(C)(Oc1c(C2CCN(CCCCNC(=O)c3ccc(-c4ccc(C#N)cc4)cc3)CC2)ccc2c1CCCC2)C(N)=O`, the XC50 is 696 nM.

Regarding `COc1ccccc1CC1CCCN(C2CCC(NC(=O)c3cc4ccccc4[nH]3)CC2)C1` (stereo unspecified), the XC50 worked out at 842 nM.

`COc1cccc2c(NCc3ccccc3)nc(NCCCN3CCCCC3C)nc12` (stereo unspecified) showed an XC50 of 911 nM.

`O=C(Cn1c(SCc2cccc(F)c2F)cc(=O)c2ccccc21)N(Cc1ccc(-c2ccc(C(F)(F)F)cc2)cc1)C1CCN(CCO)CC1` returned an XC50 of 1250 nM.

The compound `Cc1noc(C)c1-c1cccc(CNCc2ccc(-c3cccc(-c4nc5cc(C(F)(F)F)ccc5[nH]4)c3)cc2)c1` came in with an XC50 of 556 nM.

`COc1cccc2cc(C(=O)N[C@@H](CC(C)C)C(=O)NC3CC[C@@H](C)N(C(=O)Nc4ccncc4)CC3=O)oc12` (stereo partly specified) showed an XC50 of 292 nM.

In turn, `CC1=NN(c2ccc(C)c(C)c2)C(=O)C1=NNc1cccc(-c2cccc(NC(=O)OC(C)(C)C)c2)c1O` displayed an XC50 of 695 nM.

In turn, `CCCCCC(C)C(C)c1cc(O)c2c(c1)OC(C)(C)CC2(O)c1ccccn1` (stereo unspecified) had an XC50 of 741 nM.

On to `NC(=O)c1cccc(C(=O)Nc2cccc(-c3cccc(-c4nc5cc(F)ccc5[nH]4)c3)c2)c1`, for which the XC50 is 249 nM.

Take `O=C(Nc1ccc(C(F)(F)F)cc1)NC1CCN(CCCCCNC(=O)C2CC2c2ccc(Cl)c(Cl)c2)CC1` (stereo unspecified): the XC50 amounted to 626 nM.

`CN1CCC(NCc2cccc(-c3ccc(S(=O)(=O)NCCN4CCCC4)s3)c2)CC1` showed an XC50 of 928 nM.

`COc1ccccc1-c1cccc(Nc2c(Nc3ccc(Cl)cc3)c(=O)c2=O)c1` came in with an XC50 of 878 nM.

The compound `c1ccc(CNc2cc(-c3ccccn3)nc(-c3ccccn3)n2)cc1` showed an XC50 of 302 nM.

For the compound `CC(C)CC(NC(=O)c1cccc(OCCN2CCOCC2)c1)C(=O)NC(/C=N/NC(=O)c1ccccc1)CCc1ccccc1` (stereo unspecified), the XC50 was found to be 251 nM.

Consider `CS(=O)(=O)n1c(CN2CCN(c3ncc(C(F)(F)F)cc3Cl)CC2)nc2ccccc21`, for which the XC50 turned out to be 1060 nM.

Take `CNC(=O)NC1CCN(Cc2c(-c3cccs3)nc3ccccc3c2C(=O)N[C@@H](C)C2CCCCC2)CC1`: the XC50 amounted to 219 nM.

For the compound `COC(=O)C(NC(=O)c1ccc(-c2ccc(-c3nc4ccccc4[nH]3)s2)cc1)c1ccc(O)cc1` (stereo unspecified), the XC50 came out at 738 nM.

Compound `Cc1ccccc1C1CCN(C2CCC(NC(=O)/C=C/c3ccc4c(c3)OC(F)(F)O4)CC2)CC1` (stereo unspecified) displayed an XC50 of 666 nM.

With `Cc1cccc2nc(-c3ccc(-c4ccc(NC(=O)CN5CCN(C)CC5)cc4)s3)[nH]c12`, the XC50 was 1020 nM.

On to `Cc1ccc(C(=O)Nc2cccc(CN3CCCN(Cc4ccc(O)cc4)CC3)c2)s1`, for which the XC50 worked out at 1000 nM.

As to `Cc1nnc2c(NC(=O)NC3CCCC3)cc3ccc(-c4cccc(CN5CCN(C)CC5)c4)cc3n12`, the XC50 was determined as 917 nM.

Compound `O=c1cc(NCCCNC2CCCc3c2ccc2ccccc32)[nH]c2ccccc12` (stereo unspecified) had an XC50 of 824 nM.

For the compound `CN1CCc2cc(O)c(NS(=O)(=O)c3ccc(-c4ccc(Cl)cc4)cc3)cc2CC1`, the XC50 came to 767 nM.

The compound `CN(C)c1cc(NC(=O)Nc2ccc(SC(F)(F)F)cc2)c2ccccc2n1` registered an XC50 of 140 nM.

`CO[C@H](C)[C@H](NC(=O)[C@H](CC(C)C)[C@H](CCC(F)(F)F)N(O)C=O)C(=O)Nc1nccs1` came in with an XC50 of 110 nM.

`COc1ccc(CCNCC(O)c2cccc(Br)c2)c(Cl)c1OC` (stereo unspecified): the XC50 is 1040 nM.

For `CN1CCN(CCCN(Cc2cccc(-c3cccc(CNC4CCCC4)c3)c2)C(=O)/C=C/c2ccccc2)CC1`, the XC50 worked out at 777 nM.

`CCOc1cc(C(=O)NCCCN2CCCCC2C)ccc1-c1nc2cc(Cl)ccc2[nH]1` (stereo unspecified): the XC50 is 1070 nM.

In the case of `CC(C)(C)CNCC(C)(C)c1nc(-c2ccc(Cl)c(O)c2)c(-c2ccncc2)[nH]1`, the XC50 was determined as 601 nM.

For `CC(O)C1CCCCN1C(=O)c1ccc(-c2ccc(-c3nc4cc(F)ccc4[nH]3)cc2)cc1` (stereo unspecified), the XC50 worked out at 435 nM.

In turn, `CN(C)CCNCc1ccc(-c2ccc3c(Nc4ccc(F)cc4Cl)ccnc3c2)o1` yielded an XC50 of 145 nM.

`Cc1ncccc1C(=O)Nc1cccc(-c2cccc(-c3nc4cccc(C)c4[nH]3)c2)c1`: the XC50 was 956 nM.

For the compound `CCCCc1cc(NCc2ccncc2)nc(Nc2cccc(OC)c2)n1`, the XC50 stood at 742 nM.

For `NC(=O)c1cc2nc(Nc3ccc(F)cc3)nc(Nc3ccc(S(N)(=O)=O)cc3)c2[nH]1`, the XC50 was 795 nM.

Compound `CN(C)CCNc1ncnc2c1[nH]c1ccc(Br)cc12` returned an XC50 of 742 nM.

As for `COC(=O)C(Cc1ccccc1)NC(=O)NC1CCN(c2ccnc(Nc3ccc(F)cc3)n2)C1` (stereo unspecified), the XC50 came out at 1090 nM.

As to `N=C(N)NC(=O)Nc1cc(Cl)c(Cl)c(Br)c1`, the XC50 was determined as 611 nM.

In the case of `Fc1ccc(C=NN=c2cc[nH]c3ccc(C(F)(F)F)cc23)cc1`, the XC50 was found to be 1100 nM.

Turning to `CC(C)(CN)c1nc(-c2ccc(Cl)c(O)c2)c(-c2ccncc2)[nH]1`, the XC50 worked out at 756 nM.

Regarding `COc1ccc(-c2ccc(NC(=O)c3ccc(C#N)cc3)cc2)cc1CNC(C)C`, the XC50 came to 529 nM.

Compound `C(=C(c1cccs1)c1cccs1)c1ccc(CNC2CCN(Cc3ccccc3)CC2)cc1` registered an XC50 of 161 nM.

These data come from ChEMBL document CHEMBL1157539, “Thousands of chemical starting points for antimalarial lead identification” (Nature, 2010).
